# According to US10214508B2, “Nitrogen-containing heterocyclic compound” (Takeda Pharmaceutical Company Limited, priority 2014, dated 2019):
# Target: T1, human M1 receptor (hCHRM1) (Homo sapiens, UniProt P11229)
# T1 construct: expressed in transfected cells
# T1 sequence (P11229 1-460): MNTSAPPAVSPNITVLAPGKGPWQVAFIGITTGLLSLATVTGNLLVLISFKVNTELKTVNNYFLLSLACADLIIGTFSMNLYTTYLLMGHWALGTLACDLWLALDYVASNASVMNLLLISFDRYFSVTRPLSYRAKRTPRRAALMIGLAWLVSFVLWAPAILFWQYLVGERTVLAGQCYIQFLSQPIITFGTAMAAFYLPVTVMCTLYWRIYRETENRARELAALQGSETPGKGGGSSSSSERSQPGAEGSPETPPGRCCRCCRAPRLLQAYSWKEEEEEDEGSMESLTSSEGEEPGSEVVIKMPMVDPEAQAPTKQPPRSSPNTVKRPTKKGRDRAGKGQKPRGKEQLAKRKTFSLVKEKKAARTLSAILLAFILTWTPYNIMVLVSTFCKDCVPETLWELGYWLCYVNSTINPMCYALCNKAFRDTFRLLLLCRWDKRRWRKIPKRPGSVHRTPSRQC
# Experiment: Measurement of M1 receptor positive allosteric modulator (M1PAM) activity, calcium fluorescence (FLIPRtetra)
# Assay type: cell-based
# Conditions: 10 μM test compound with acetylcholine at EC20 (final 0.6-0.8 nM); 100% = acetylcholine 1 μM, 0% = DMSO; CHO-K1 cells expressing hCHRM1
# Procedure: Measurement of M1 Receptor Positive Allosteric Modulator (M1PAM) Activity
# The activity of a test compound in the presence of acetylcholine at EC20 concentration (final concentration 0.6-0.8 nM), which affords an action corresponding to about 20% of the maximum activity, was measured as PAM activity. The method is as follows. CHO-K1 cells stably expressing a human M1 receptor (hCHRM1) were plated on a 384-well black clear bottom plate (BD Falcon) at 5,000 cells/well, and cultured in an incubator at 37° C., 5% CO2 for 1 day. The medium in the cell plate was removed, and assay buffer A containing calcium indicator (Recording medium (DOJINDO LABORATORIES), 0.1% BSA (Wako Pure Chemical Industries, Ltd.), 2.5 μg/mL Fluo-4 AM (DOJINDO LABORATORIES), 0.08% Pluronic F127 (DOJINDO LABORATORIES), 1.25 mM probenecid (DOJINDO LABORATORIES)) was added at 30 μL/well. The cells were left standing in the incubator at 37° C., 5% CO2 for 30 min, and further left standing at room temperature for 30 min. A test compound prepared by diluting with assay buffer B (HBSS (Invitrogen), 20 mM HEPES (Invitrogen), 0.1% BSA) containing 2.4-3.2 nM acetylcholine was added at 10 μL/well, and the fluorescence was measured by FLIPRtetra (Molecular Devices) for 1 min every for 1 second. With the definition that the amount of change in the fluorescence on addition of acetylcholine (final concentration 1 μM) is 100% and that on addition of DMSO instead of a test compound is 0%, the activity (%) of the test compound was calculated, and the inflection point in the concentration-dependent curve of the test compound was calculated as IP values.
row,SMILES,activity (%) at 10 μM [%]
1,"COc1cnc(C(=O)N[C@H]2CCCC[C@@H]2O)cc1Cc1ccc(-c2cnn(C)c2)nc1 [Example 59, N-((1S,2S)-2-hydroxycyclohexyl)-5-methoxy-4-((6-(1-methyl-1H-pyrazol-4-yl)pyridin-3-yl)methyl)pyridine-2-carboxamide]",90
2,"COc1cnc(C(=O)N[C@H]2CCC[C@@H]2O)cc1Cc1ccc(-n2cccn2)cc1 [Example 60, N-((1S,2S)-2-hydroxycyclopentyl)-5-methoxy-4-(4-(1H-pyrazol-1-yl)benzyl)pyridine-2-carboxamide]",87
3,"COc1cnc(C(=O)N[C@H]2CCCC[C@@H]2O)cc1Cc1ccc(Cl)nc1 [Example 61, 4-((6-chloropyridin-3-yl)methyl)-N-((1S,2S)-2-hydroxycyclohexyl)-5-methoxypyridine-2-carboxamide]",108
4,"COc1cnc(C(=O)N[C@H]2CCCC[C@@H]2O)cc1Cc1ccc(Br)cc1 [Example 62, 4-(4-bromobenzyl)-N-((1S,2S)-2-hydroxycyclohexyl)-5-methoxypyridine-2-carboxamide]",96
5,"COc1cnc(C(=O)N[C@H]2CCCC[C@@H]2O)cc1Cc1ccc(-n2cccn2)cc1 [Example 63, N-((1S,2S)-2-Hydroxycyclohexyl)-5-methoxy-4-(4-(1H-pyrazol-1-yl)benzyl)pyridine-2-carboxamide]",94
6,"COc1cnc(C(=O)N[C@H]2CCCC[C@@H]2O)cc1Cc1ccc(-c2cnn(C)c2)cc1 [Example 64, N-((1S,2S)-2-hydroxycyclohexyl)-5-methoxy-4-(4-(1-methyl-1H-pyrazol-4-yl)benzyl)pyridine-2-carboxamide]",104
7,"Cc1nc(C(=O)N[C@H]2CCCC[C@@H]2O)cc(Cc2ccc(-c3ccn(C)n3)cc2)c1Cl [Example 65, 5-chloro-N-((1S,2S)-2-hydroxycyclohexyl)-6-methyl-4-(4-(1-methyl-1H-pyrazol-3-yl)benzyl)pyridine-2-carboxamide]",106
8,"Cc1nc(C(=O)N[C@H]2CCCC[C@@H]2O)cc(Cc2ccc(C#N)cc2)c1Cl [Example 66, 5-chloro-4-(4-cyanobenzyl)-N-((1S,2S)-2-hydroxycyclohexyl)-6-methylpyridine-2-carboxamide]",105
9,"N#Cc1cnc(C(=O)N[C@H]2CCCC[C@@H]2O)cc1Cc1ccc(-n2cccn2)cc1 [Example 67, 5-cyano-N-((1S,2S)-2-hydroxycyclohexyl)-4-(4-(1H-pyrazol-1-yl)benzyl)pyridine-2-carboxamide]",95
10,"COc1cc(Cc2ccc(-n3cccn3)cc2)cc(C(=O)N[C@H]2CCC[C@@H]2O)n1 [Example 68, N-((1S,2S)-2-hydroxycyclopentyl)-6-methoxy-4-(4-(1H-pyrazol-1-yl)benzyl)pyridine-2-carboxamide]",96
11,"COc1cc(Cc2ccc(-n3cccn3)cc2)cc(C(=O)N[C@H]2CCCC[C@@H]2O)n1 [Example 69, N-((1S,2S)-2-hydroxycyclohexyl)-6-methoxy-4-(4-(1H-pyrazol-1-yl)benzyl)pyridine-2-carboxamide]",100
12,"Cc1cc(Cc2ccc(-n3cccn3)cc2)cc(C(=O)N[C@H]2CCCC[C@@H]2O)n1 [Example 70, N-((1S,2S)-2-hydroxycyclohexyl)-6-methyl-4-(4-(1H-pyrazol-1-yl)benzyl)pyridine-2-carboxamide]",87
13,"COc1ccc(Cc2cc(C)nc(C(=O)N[C@H]3CCCC[C@@H]3O)c2)cc1 [Example 71, N-((1S,2S)-2-hydroxycyclohexyl)-4-(4-methoxybenzyl)-6-methylpyridine-2-carboxamide]",69
14,"Cc1nc(C(=O)N[C@H]2CCCC[C@@H]2O)cc(Cc2ccc(Cl)nc2)c1C [Example 73, 4-((6-chloropyridin-3-yl)methyl)-N-((1S,2S)-2-hydroxycyclohexyl)-5,6-dimethylpyridine-2-carboxamide]",94
15,"Cc1nc(C(=O)N[C@H]2CCC[C@@H]2O)cc(Cc2ccc(-n3cccn3)cc2)c1C [Example 75, N-((1S,2S)-2-hydroxycyclopentyl)-5,6-dimethyl-4-(4-(1H-pyrazol-1-yl)benzyl)pyridine-2-carboxamide]",102
16,"Cc1nc(C(=O)N[C@H]2CCCC[C@@H]2O)cc(Cc2ccc(-n3cccn3)cc2)c1C [Example 76, N-((1S,2S)-2-hydroxycyclohexyl)-5,6-dimethyl-4-(4-(1H-pyrazol-1-yl)benzyl)pyridine-2-carboxamide]",92
17,"Cc1nc(C(=O)N[C@H]2CCCC[C@@H]2O)cc(Cc2ccc(Br)cc2)c1C [Example 77, 4-(4-bromobenzyl)-N-((1S,2S)-2-hydroxycyclohexyl)-5,6-dimethylpyridine-2-carboxamide]",100
18,"Cc1nc(C(=O)N[C@H]2COCC[C@@H]2O)cc(Cc2ccc(-n3cccn3)cc2)c1C [Example 78, 1,5-anhydro-2,4-dideoxy-2-(((5,6-dimethyl-4-(4-(1H-pyrazol-1-yl)benzyl)pyridin-2-yl)carbonyl)amino)-L-threo-pentitol]",104
19,"Cc1nc(C(=O)N[C@H]2CCCC[C@@H]2O)cc(Cc2ccc(-c3cnn(C)c3)cc2)c1C [Example 79, N-((1S,2S)-2-hydroxycyclohexyl)-5,6-dimethyl-4-(4-(1-methyl-1H-pyrazol-4-yl)benzyl)pyridine-2-carboxamide]",106
20,"Cc1nc(C(=O)N[C@H]2CCCC[C@@H]2O)cc(Cc2ccc(-c3cnn(C)c3)nc2)c1C [Example 80, N-((1S,2S)-2-hydroxycyclohexyl)-5,6-dimethyl-4-((6-(1-methyl-1H-pyrazol-4-yl)pyridin-3-yl)methyl)pyridine-2-carboxamide]",84
21,"Cc1nc(C(=O)N[C@H]2CCCC[C@@H]2O)cc(Cc2ccc(-c3ccn(C)n3)cc2)c1C [Example 81, N-((1S,2S)-2-hydroxycyclohexyl)-5,6-dimethyl-4-(4-(1-methyl-1H-pyrazol-3-yl)benzyl)pyridine-2-carboxamide]",97
22,"Cc1nc(C(=O)N[C@H]2COCC[C@@H]2O)cc(Cc2ccc(-c3ccn(C)n3)cc2)c1C [Example 82, 1,5-anhydro-2,4-dideoxy-2-(((5,6-dimethyl-4-(4-(1-methyl-1H-pyrazol-3-yl)benzyl)pyridin-2-yl)carbonyl)amino)-L-threo-pentitol]",103
23,"COc1ccc(Cc2cc(C(=O)N[C@H]3COCC[C@@H]3O)nc(C)c2C)cc1 [Example 83, 1,5-anhydro-2,4-dideoxy-2-(((4-(4-methoxybenzyl)-5,6-dimethylpyridin-2-yl)carbonyl)amino)-L-threo-pentitol]",103
24,"Cc1ccc(Cc2cc(C(=O)N[C@H]3CCCC[C@@H]3O)nc(C)c2C)cn1 [Example 84, N-((1S,2S)-2-hydroxycyclohexyl)-5,6-dimethyl-4-((6-methylpyridin-3-yl)methyl)pyridine-2-carboxamide]",93
25,"Cc1nc(C(=O)N[C@H]2COCC[C@@H]2O)cc(Cc2ccc(Cl)nc2)c1C [Example 85, 1,5-anhydro-2-(((4-((6-chloropyridin-3-yl)methyl)-5,6-dimethylpyridin-2-yl)carbonyl)amino)-2,4-dideoxy-L-threo-pentitol]",99
26,"Cc1nc(C(=O)N[C@H]2COCC[C@@H]2O)cc(Cc2ccc(-c3ccn(C)n3)nc2)c1C [Example 86, 1,5-anhydro-2,4-dideoxy-2-(((5,6-dimethyl-4-((6-(1-methyl-1H-pyrazol-3-yl)pyridin-3-yl)methyl)pyridin-2-yl)carbonyl)amino)-L-threo-pentitol]",95
27,"COc1nc(C(=O)N[C@H]2COCC[C@@H]2O)cc(Cc2ccc(-c3ccn(C)n3)cc2)c1C [Example 87, 1,5-anhydro-2,4-dideoxy-2-(((6-methoxy-5-methyl-4-(4-(1-methyl-1H-pyrazol-3-yl)benzyl)pyridin-2-yl)carbonyl)amino)-L-threo-pentitol]",92
